Legend:
[1] = target: D1-like dopamine receptors (Sus scrofa, UniProt P50130); type: binding; conditions: porcine striatum; for Fold D1-like Selectivity: ratio of D2-like Ki to D1-like Ki
[2] = target: D2-like dopamine receptors (Sus scrofa, UniProt A0ACM8QMZ9); conditions: porcine striatal binding, D1-like vs D2-like
[3] = pKa of synthetic acids, used for separation by titration; type: physicochemical

Sequence of D1-like dopamine receptors (P50130 whole entry): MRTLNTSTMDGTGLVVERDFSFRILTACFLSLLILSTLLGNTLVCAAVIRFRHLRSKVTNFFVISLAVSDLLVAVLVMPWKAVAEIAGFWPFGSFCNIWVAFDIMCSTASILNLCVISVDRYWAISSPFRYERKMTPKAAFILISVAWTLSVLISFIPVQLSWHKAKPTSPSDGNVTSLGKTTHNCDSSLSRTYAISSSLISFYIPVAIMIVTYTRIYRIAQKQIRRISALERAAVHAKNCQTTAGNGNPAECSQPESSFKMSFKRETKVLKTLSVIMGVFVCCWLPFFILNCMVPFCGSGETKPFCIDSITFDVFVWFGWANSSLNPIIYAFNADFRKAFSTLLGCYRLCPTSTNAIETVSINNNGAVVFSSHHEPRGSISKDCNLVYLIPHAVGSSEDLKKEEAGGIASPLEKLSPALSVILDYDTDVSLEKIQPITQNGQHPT
Sequence of D2-like dopamine receptors (A0ACM8QMZ9 1-443): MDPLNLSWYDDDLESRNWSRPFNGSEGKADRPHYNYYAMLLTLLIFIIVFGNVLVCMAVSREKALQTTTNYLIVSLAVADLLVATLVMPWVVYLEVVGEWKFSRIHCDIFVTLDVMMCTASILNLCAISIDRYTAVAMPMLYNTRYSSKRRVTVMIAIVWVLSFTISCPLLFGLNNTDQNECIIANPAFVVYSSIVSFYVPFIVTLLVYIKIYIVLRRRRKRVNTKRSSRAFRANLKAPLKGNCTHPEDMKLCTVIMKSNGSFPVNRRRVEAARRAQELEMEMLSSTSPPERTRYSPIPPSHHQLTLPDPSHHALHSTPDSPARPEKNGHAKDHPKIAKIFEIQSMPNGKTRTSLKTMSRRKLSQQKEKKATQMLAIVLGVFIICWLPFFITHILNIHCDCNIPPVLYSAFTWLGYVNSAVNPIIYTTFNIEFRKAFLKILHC

Structure (SMILES)	Fold D1-like Selectivity [1] [fold]	also measured
Br.NC[C@H]1C[C@@H](C23CC4CC(CC(C4)C2)C3)Cc2c1ccc(O)c2O (relative stereo) [3c, Cis-5-(aminomethyl)-7-adamantyl-5,6,7,8-tetrahydronaphthalene-1,2-diol hydrobromide]	55	Fold higher binding affinity at D1-like receptors compared to 2c ([1]; relative to 2c): ~20 fold
Cl.NCC1CCOc2c1ccc(O)c2O (stereo not drawn) [2a, 7,8-Dihydroxy-4-aminomethylchroman hydrochloride]		Receptor subtype selectivity [2]: selectivity for D2-like receptors
COc1cccc(C2OC(=O)CC2C(=O)O)c1OC (stereo not drawn) [compound 18, 2-(2,3-Dimethoxyphenyl)-5-oxo-tetrahydrofuran-3-carboxylic acid]		pKa [3]: ~3.6

The next lines start with results.

Fold D1-like Selectivity [1] [fold]	Structure (SMILES)	also measured
92	NC[C@@H]1O[C@H](c2ccccc2)Cc2c1ccc(O)c2O [1d, reference compound]	
480	NC[C@@H]1O[C@H](C23CC4CC(CC(C4)C2)C3)Cc2c1ccc(O)c2O [1c, reference compound]	
